Values joined by “and” are separate entries in the source; they are usually repeats but may differ in a detail not shown here. Equal entries are not always repeated.
Test system: CD-1 mice
Assay: Acute toxicity of intraperitoneal bolus doses in CD-1 mice
Format: in vivo
Details: for tubular dilation: after the 30 day observation period
Protocol: 1.2.8 Animals Female CD-1 mice (Body weight: ˜25 g; Age: 7 week old) were purchased, from Charles River Laboratories (Willmington, Mass., USA). MMTV Neu-mice [FVB/N-TgN(MMTV neu)202MUL; Jackson Laboratory, Bar Harbor, Me.] were bred to produce multiple litters. All mice were housed in microisolator cages (Lab Products, Inc., Maywood, N.Y., USA) containing autoclaved bedding in a controlled specific pathogen-free (SPF) environment (12-h light/12-h dark photoperiod, 22±1° C., 60±10% relative humidity), which is fully accredited by the USDA (United States Department of Agriculture). Adult male Lewis rats (Body weight: ˜160 g) were obtained from the specific pathogen-free (SPF) breeding facilities of Harlan Sprague Dawley (Indianapolis, Id., USA) at 14 weeks of age. All husbandry and experimental contact made with the mice and rats maintained SPF conditions. The rats were kept in microisolater cages (Allentown Caging Equipment Co., Inc., Allentown, N.J., USA) containing autoclaved food, water, and bedding. Animal studies were approved by Parker Hughes Institute Animal Care and Use Committee and all animal care procedures 1.5 conformed to the Guide for the Care and Use of Laboratory Animals (National Research Council, National Academy Press, Washington D.C. 1996, USA).
The toxicity profile of Compound 003 in CD-1 mice and Lewis rats was examined, using standard procedures as previously reported for other experimental drugs (Uckun, et al., 2003, Arzneimittelforschun. 53:357; Uckun, et al., 2002, Clin Cancer Res. 8: 1224; Uckun, et al., 2002, Antimicrob Agents Chemother. 46:3428). In brief, mice and rats were treated with intraperitoneal injections of vehicle or Compound 003 at multiple dose levels. Compound 003 was administered as a 0.2 mL (for mice) or 0.5 mL (for rats) bolus injection containing 10% DMSO as a vehicle. Animals were allowed free access to autoclaved standard pellet food and tap water throughout the experiments and monitored daily for morbidity and mortality. Animals were electively sacrificed on day 7 or day 30 to determine the toxicity of Compound 003 by examining their blood chemistry profiles, blood counts, and evaluating multiple organs for the presence of toxic lesions. Blood was collected by intracardiac puncture following anesthesia with ketamine:xylazine and immediately heparinized. The blood chemistry profiles were examined using a Synchron CX5CE Chemical Analyzer (Beckman Instruments, Inc., Fullerton, Calif., USA). Blood counts (red blood cells [RBC], white blood cells [WBC] and platelets [Plt]) were determined using a HESKA Vet ABC-Diff Hematology Analyzer (HESKA Corporation, Fort Collins, Colo., USA). Absolute neutrophil counts (ANC) and absolute lymphocyte counts (ALC) were calculated from WBC values after determining the percentages of neutrophils and lymphocytes by a manual differential count. At the time of necropsy, […] from mice (bone, bone marrow, brain, cecum, heart, kidney, large intestine, liver, lung, lymph node, ovary, pancreas, skeletal muscle, skin, small intestine, spleen, stomach, thymus, thyroid gland, urinary bladder, and uterus, as available) and 21 different tissues from rats (bone, bone marrow, brain, coagulating gland, epididymis, heart, large intestine, small intestine, kidney, liver, lung, pancreas, peripheral nerve/spinal nerve, skeletal muscle, skin, spinal cord, spleen, stomach, testes, thymus, urinary bladder) were collected within 15 minutes after sacrifice, gross pathological findings were documented, organs were preserved in 10% neutral phosphate buffered formalin, and processed for histopathological examination. For histopathologic studies, formalin fixed tissues were dehydrated and embedded in paraffin by routine methods. Glass slides with affixed 4-5 micron tissue sections were prepared and stained with Hemotoxylin and Eosin (H&E). […]

[1] = 10 mg/kg single i.p. bolus, Day 7
[2] = 10 mg/kg single i.p. bolus, Day 30
[3] = 20 mg/kg single i.p. bolus, Day 7
[4] = 20 mg/kg single i.p. bolus, Day 30
[5] = 40 mg/kg single i.p. bolus, Day 7
[6] = 40 mg/kg single i.p. bolus, Day 30
[7] = 80 mg/kg single i.p. bolus, Day 7
[8] = 80 mg/kg single i.p. bolus, Day 30

## COC(=O)C(C)NP(=O)(OCC1OC(n2cc(C)c(=O)[nH]c2=O)CC1N=[N+]=[N-])Oc1ccc(OC)cc1 (centres unmarked) [Compound 003, 3′-azidothymidine 5′-[p-methoxyphenylmethoxyalaninyl phosphate]]
[1]
  ALC: 5.5 ± 0.0 ×10^9/L
  ANC: 1.2 ± 0.0 ×10^9/L
  AST: 137.1 ± 23.1 IU/L
  Albumin: 1.5 ± 0.0 g/dL
  Ammonia: 174.8 ± 11.8 µmol/L
  Amylase: 1728.6 ± 248.5 U/L
  BUN: 24.1 ± 0.8 mg/dL
  Calcium: 8.9 ± 0.2 mg/dL
  Creatinine: 0.3 ± 0.0 mg/dL
  Mean Weight Change (g ± SEM): 0.16 ± 0.15 g
  Mean Weight Change [%]: (0.6 ± 0.6%)
  Morbidity: 0/20
  Phosphate: 6.2 ± 0.2 mg/dL
  RBC: 9.4 ± 0.2 ×10^12/L
  Total Bilirubin: 0.7 ± 0.1 mg/dL
  Total Protein: 4.1 ± 0.1 g/dL
  Toxic Organ Lesions: 0/20
  Triglycerides: 158.3 ± 18.2 mg/dL
  WBC: 7.3 ± 0.6 ×10^9/L
  Weight Gain: 13/20
  Weight Loss: 7/20
[2]
  ALC: 7.5 ×10^9/L and 7.5 ± 0.0 ×10^9/L
  ANC: 2.1 ± 0.0 ×10^9/L
  AST: 114.0 ± 12.4 IU/L
  Albumin: 1.2 ± 0.0 g/dL
  Ammonia: 205.3 ± 15.6 µmol/L
  Amylase: 1993.5 ± 415.9 U/L
  BUN: 21.6 ± 0.7 mg/dL
  Calcium: 8.2 ± 0.2 mg/dL
  Creatinine: 0.3 ± 0.0 mg/dL
  Mean Weight Change (g ± SEM): 2.61 ± 0.45 g
  Mean Weight Change [%]: (10.4 ± 1.8%)
  Morbidity: 0/20
  Phosphate: 5.7 ± 0.2 mg/dL
  RBC: 9.1 ± 0.1 ×10^12/L
  Total Bilirubin: 0.4 ± 0.0 mg/dL
  Total Protein: 4.0 ± 0.1 g/dL
  Toxic Organ Lesions: 0/20
  Triglycerides: 88.1 ± 10.3 mg/dL
  WBC: 9.9 ± 1.0 ×10^9/L
  Weight Gain: 18/20
  Weight Loss: 2/20
[3]
  ALC: 6.9 ± 0.0 ×10^9/L
  ANC: 1.6 ± 0.0 ×10^9/L
  AST: 100.0 ± 6.7 IU/L
  Albumin: 1.4 ± 0.0 g/dL
  Ammonia: 201.9 ± 15.0 µmol/L
  Amylase: 1810.3 ± 268.8 U/L
  BUN: 23.7 ± 0.7 mg/dL
  Calcium: 8.9 ± 0.1 mg/dL
  Creatinine: 0.4 ± 0.0 mg/dL
  Mean Weight Change (g ± SEM): -0.04 ± 0.16 g
  Mean Weight Change [%]: (−0.1 ± 0.7%)
  Morbidity: 0/20
  Phosphate: 6.6 ± 0.2 mg/dL
  RBC: 9.0 ± 0.3 ×10^12/L
  Total Bilirubin: 0.5 ± 0.1 mg/dL
  Total Protein: 4.2 ± 0.1 g/dL
  Toxic Organ Lesions: 0/20
  Triglycerides: 144.3 ± 17.5 mg/dL
  WBC: 8.7 ± 0.8 ×10^9/L
  Weight Gain: 10/20
  Weight Loss: 10/20
[4]
  ALC: 6.8 ×10^9/L and 6.8 ± 0.0 ×10^9/L
  ANC: 2.0 ± 0.0 ×10^9/L
  AST: 107.8 ± 13.2 IU/L
  Albumin: 1.1 ± 0.0 g/dL
  Ammonia: 150.5 ± 10.3 µmol/L
  Amylase: 1587.6 ± 261.5 U/L
  BUN: 20.4 ± 0.6 mg/dL
  Calcium: 8.1 ± 0.1 mg/dL
  Creatinine: 0.3 ± 0.0 mg/dL
  Mean Weight Change (g ± SEM): 3.01 ± 0.28 g
  Mean Weight Change [%]: (12.4 ± 1.1%)
  Morbidity: 0/20
  Phosphate: 6.2 ± 0.1 mg/dL
  RBC: 9.1 ± 0.2 ×10^12/L
  Total Bilirubin: 0.5 ± 0.0 mg/dL
  Total Protein: 3.8 ± 0.1 g/dL
  Toxic Organ Lesions: 0/20
  Triglycerides: 84.6 ± 7.2 mg/dL
  WBC: 9.3 ± 0.8 ×10^9/L
  Weight Gain: 20/20
  Weight Loss: 0/20
20 mg/kg
  tubular dilation: 2/20
[5]
  ALC: 5.5 ± 0.0 ×10^9/L
  ANC: 1.7 ± 0.0 ×10^9/L
  AST: 134.3 ± 23.2 IU/L
  Albumin: 1.5 ± 0.0 g/dL
  Ammonia: 366.8 ± 23.7 µmol/L
  Amylase: 1597.8 ± 100.0 U/L
  BUN: 27.6 ± 0.7 mg/dL
  Calcium: 8.8 ± 0.2 mg/dL
  Creatinine: 0.5 ± 0.1 mg/dL
  Mean Weight Change (g ± SEM): -0.06 ± 0.21 g
  Mean Weight Change [%]: (−0.2 ± 0.9%)
  Morbidity: 0/20
  Phosphate: 7.0 ± 0.2 mg/dL
  RBC: 9.8 ± 0.3 ×10^12/L
  Total Bilirubin: 0.7 ± 0.2 mg/dL
  Total Protein: 4.5 ± 0.1 g/dL
  Toxic Organ Lesions: 0/20
  Triglycerides: 134.7 ± 21.6 mg/dL
  WBC: 7.4 ± 0.7 ×10^9/L
  Weight Gain: 9/20
  Weight Loss: 11/20
[6]
  ALC: 4.7 ×10^9/L and 4.7 ± 0.0 ×10^9/L
  ANC: 1.4 ± 0.0 ×10^9/L
  AST: 198.5 ± 51.8 IU/L
  Albumin: 1.2 ± 0.0 g/dL
  Ammonia: 139.2 ± 8.3 µmol/L
  Amylase: 2153.7 ± 411.4 U/L
  BUN: 20.5 ± 0.8 mg/dL
  Calcium: 7.2 ± 0.2 mg/dL
  Creatinine: 0.3 ± 0.0 mg/dL
  Mean Weight Change (g ± SEM): 2.34 ± 0.35 g
  Mean Weight Change [%]: (9.6 ± 1.4%)
  Morbidity: 0/20
  Phosphate: 5.9 ± 0.3 mg/dL
  RBC: 9.1 ± 0.1 ×10^12/L
  Total Bilirubin: 0.5 ± 0.1 mg/dL
  Total Protein: 3.9 ± 0.1 g/dL
  Toxic Organ Lesions: 0/20
  Triglycerides: 74.9 ± 5.0 mg/dL
  WBC: 6.2 ± 0.7 ×10^9/L
  Weight Gain: 18/20
  Weight Loss: 2/20
40 mg/kg
  tubular dilation: 1/20
[7]
  ALC: 6.7 ± 0.0 ×10^9/L
  ANC: 2.4 ± 0.0 ×10^9/L
  AST: 111.4 ± 7.8 IU/L
  Albumin: 1.5 ± 0.1 g/dL
  Ammonia: 293.1 ± 23.4 µmol/L
  Amylase: 1424.6 ± 37.1 U/L
  BUN: 27.7 ± 0.9 mg/dL
  Calcium: 9.1 ± 0.2 mg/dL
  Creatinine: 0.3 ± 0.0 mg/dL
  Mean Weight Change (g ± SEM): 0.09 ± 0.20 g
  Mean Weight Change [%]: (0.4 ± 0.8%)
  Morbidity: 0/20
  Phosphate: 6.0 ± 0.2 mg/dL
  RBC: 9.3 ± 0.2 ×10^12/L
  Total Bilirubin: 0.8 ± 0.2 mg/dL
  Total Protein: 4.9 ± 0.2 g/dL
  Toxic Organ Lesions: 0/20
  Triglycerides: 197.6 ± 34.7 mg/dL
  WBC: 9.5 ± 0.9 ×10^9/L
  Weight Gain: 11/20
  Weight Loss: 9/20
[8]
  ALC: 3.4 ×10^9/L and 3.4 ± 0.0 ×10^9/L
  ANC: 1.6 ± 0.0 ×10^9/L
  AST: 154.2 ± 33.8 IU/L
  Albumin: 1.2 ± 0.0 g/dL
  Ammonia: 178.4 ± 17.9 µmol/L
  Amylase: 1397.1 ± 339.3 U/L
  BUN: 26.1 ± 1.3 mg/dL
  Calcium: 7.7 ± 0.2 mg/dL
  Creatinine: 0.3 ± 0.0 mg/dL
  Mean Weight Change (g ± SEM): 3.24 ± 0.29 g
  Mean Weight Change [%]: (13.4 ± 1.2%)
  Morbidity: 0/20
  Phosphate: 5.8 ± 0.4 mg/dL
  RBC: 9.4 ± 0.2 ×10^12/L
  Total Bilirubin: 0.6 ± 0.0 mg/dL
  Total Protein: 4.1 ± 0.1 g/dL
  Toxic Organ Lesions: 0/20
  Triglycerides: 85.6 ± 9.5 mg/dL
  WBC: 5.3 ± 0.5 ×10^9/L
  Weight Gain: 20/20
  Weight Loss: 0/20
80 mg/kg
  tubular dilation: 1/20
40 and 80 mg/kg, following the 7 day period
  Kidney tubular degeneration, share of drug-treated mice: ~50%
Day 30, 10-80 mg/kg
  leukopenia / lymphocyte depletion: causes leukopenia in a dose-dependent fashion due to a selective depletion of lymphocytes
Doses up to and including 80mg/kg
  overall toxicity (histologic evaluation): nontoxic
Highest dose level of 80 mg/kg/day
  hematologic toxicity, renal toxicity, hepatotoxicity: no evidence of hematologic toxicity renal toxicity, or hepatotoxicity
Single i.p. bolus, not reached at highest dose
  LD10: > 80 mg/kg/day

Source: US20060046972A1, “Cytotoxic nucleoside analog compound 003 for treating cancer” (Parker Hughes Institute, priority 2004, published 2006)
